In US20240218022A1, “ANTI-VISTA MACROCYCLIC PEPTIDES AND COMPOSITIONS” (BRISTOL-MYERS SQUIBB COMPANY, priority 2022, published 2024):

Target: T1, mouse VISTA (mVISTA) (Mus musculus, UniProt Q9D659)
T1 construct: expressed in transfected cells; host or cells: Human embryonic kidney 293T cells
T1 sequence (Q9D659 33-308): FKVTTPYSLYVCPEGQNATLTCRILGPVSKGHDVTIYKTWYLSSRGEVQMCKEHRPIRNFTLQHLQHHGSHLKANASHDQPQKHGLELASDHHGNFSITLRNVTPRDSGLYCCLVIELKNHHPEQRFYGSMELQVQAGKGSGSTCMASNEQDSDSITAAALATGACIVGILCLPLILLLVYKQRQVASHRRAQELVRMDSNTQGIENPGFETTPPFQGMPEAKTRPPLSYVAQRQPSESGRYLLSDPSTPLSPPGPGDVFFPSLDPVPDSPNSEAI
Assay: Cell-Based Binding High-Content Assay For mVISTA (HC CBA mVISTA)
Details: cell-based binding high-content assay; read-out: HC CBA miPrISTA IC50
Experimental: Cell-Based Binding High-Content Assay For mVISTA
Human embryonic kidney 293T cells (293T) expressing mouse VISTA (mVISTA) were used for the assessment of compounds competing with the binding of a biotinylated peptide. Cryopreserved cells were thawed in a 37° C. water bath and incubated overnight at a 37° C./5% CO2 incubator in assay culture media DMEM (Life Technologies Inc. Cat. No. 11995-126) supplemented with 10% (v/v) FBS (Sigma, Cat. No. F4135), 1× Penicillin/Streptomycin (Life Technologies Inc. Cat. No. 15140-122). Cells were harvested, washed and resuspended in DMEM media […]. To test compounds under “no-wash” condition, cells were seeded into PDL-coated 384 well plates (Corning, Cat. No. 356663) at 4,000 cells/20 μL. After incubating the cell plates for two hours at a 37° C./5% CO2 incubator, 125 nL of test compound was added using an ECHO. Alternatively, to test compounds under “wash” condition, test compounds were added first, followed by addition of 20 μL cells at a density of 4000 cells/well. After incubation for an hour, the media was removed, followed by addition of 20 μL of fresh media ( ), and plates were then incubated for another hour. To plates either under “no wash” or “wash” condition, the biotinylated peptide was added to a final concentration of 2 nM, and plates were incubated at room temperature for 30 minutes. Fifteen (15) μL of Alexa 647 conjugated Streptavidin (Life Tech, Cat. No. S21374), suspended at 2 μg/ml in media, was added to the assay plate and incubate for 30 minutes. Cells were fixed by adding 15 μL of formaldehyde at a final concentration of 8% (w/v) (Sigma Cat. No. 252549), 20 μg/mL Hoechst (Thermo Scientific Cat. No. 62249) in PBS for 10 minutes at room temperature. The plates were washed 3 times in dPBS, sealed, and read on a CellInsight NXT High Content Screening Platform IC903000 (Thermo Scientific). The 50% effective concentration (IC50) was calculated using the four-parameter logistic formula y=A+((B−A)/(1+((C/x)^D))), where A and B denote minimal and maximal % inhibition, respectively, C is the EC50, D is hill slope and x represent compound concentration.

SMILES	IC50
CCCCCCN1CC(=O)N[C@@H](Cc2ccc(O)cc2)C(=O)N[C@@H](CCCC)C(=O)N[C@@H](CC(N)=O)C(=O)N[C@@H](CCCNC(=N)N)C(=O)N[C@@H](CC(C)C)C(=O)N[C@@H](CCCCC)C(=O)N2CCC[C@H]2C(=O)N[C@@H](C(C)C)C(=O)N[C@@H](CC(=O)O)C(=O)N[C@H](C(=O)NCCOCCOCC(=O)N[C@@H](CC(=O)O)C(=O)NCCOCCOCC(=O)NCCCCCCCCCCC(=O)O)CSCC(=O)N[C@@H](Cc2cccc(C)c2)C(=O)N[C@@H](Cc2c[nH]c3ccccc23)C(=O)N[C@@H](CC(=O)O)C1=O (stereo in doubt) [compound 2286]	25.3 nM
CCCCCCN1CC(=O)N[C@@H](Cc2ccc(O)cc2)C(=O)N[C@@H](C(C)C)C(=O)NCC(=O)N[C@@H](CCCNC(=N)N)C(=O)N[C@@H](CC(C)C)C(=O)N[C@@H](CCCCC)C(=O)N2CCC[C@H]2C(=O)N[C@@H](C(C)C)C(=O)N[C@@H](CC(=O)O)C(=O)N[C@H](C(=O)NCCOCCOCC(=O)N[C@@H](CC(=O)O)C(=O)NCCOCCOCC(=O)NCCCCCCCCCCC(=O)O)CSCC(=O)N[C@@H](Cc2ccc3ccccc3c2)C(=O)N[C@@H](Cc2ccc(O)cc2)C(=O)N[C@@H](CC(=O)O)C1=O (stereo in doubt) [compound 2287]	21.6 nM
CCCCCCN1CC(=O)N[C@@H](Cc2ccc(O)cc2)C(=O)N[C@@H](CCCC)C(=O)N[C@@H](CC(N)=O)C(=O)N[C@@H](CCCNC(=N)N)C(=O)N[C@@H](CC(C)C)C(=O)N[C@@H](CCCCC)C(=O)N2CCC[C@H]2C(=O)N[C@@H](C(C)C)C(=O)N[C@@H](CO)C(=O)N[C@H](C(=O)NCCOCCOCC(=O)N[C@@H](CC(=O)O)C(=O)NCCOCCOCC(=O)NCCCCCCCCCCC(=O)O)CSCC(=O)N[C@@H](Cc2ccc3ccccc3c2)C(=O)N[C@@H](Cc2ccc(O)cc2)C(=O)N[C@@H](CC(=O)O)C1=O (stereo in doubt) [compound 2288]	8.6 nM
CCCCCCN1CC(=O)N[C@@H](Cc2ccc(O)cc2)C(=O)N[C@@H](CC(C)C)C(=O)N[C@@H](CC(N)=O)C(=O)N[C@@H](CCCNC(=N)N)C(=O)N[C@@H](CC(C)C)C(=O)N[C@@H](CCCCC)C(=O)N2CCC[C@H]2C(=O)N[C@@H](C(C)C)C(=O)N[C@@H](C(C)C)C(=O)N[C@H](C(=O)NCCOCCOCC(=O)N[C@@H](CC(=O)O)C(=O)NCCOCCOCC(=O)NCCCCCCCCCCC(=O)O)CSCC(=O)N[C@@H](Cc2ccccc2)C(=O)N[C@@H](Cc2cccc(C)c2)C(=O)N[C@@H](CC(=O)O)C1=O (stereo in doubt) [compound 2289]	15.7 nM
CCCCCCN1CC(=O)N[C@@H](Cc2ccc(O)cc2)C(=O)N[C@@H](CCCC)C(=O)N[C@@H](CC(N)=O)C(=O)N[C@@H](CCCNC(=N)N)C(=O)N(C)[C@@H](CCCC)C(=O)N[C@@H](CCCCC)C(=O)N2CCC[C@H]2C(=O)N[C@@H](C(C)C)C(=O)N[C@@H](CC(=O)O)C(=O)N[C@H](C(=O)NCCOCCOCC(=O)N[C@@H](CC(=O)O)C(=O)NCCOCCOCC(=O)NCCCCCCCCCCC(=O)O)CSCC(=O)N[C@@H](Cc2ccc3ccccc3c2)C(=O)N[C@@H](Cc2c[nH]c3ccccc23)C(=O)N[C@@H](CC(=O)O)C1=O (stereo in doubt) [compound 2290]	39.1 nM
CCCCCCN1CC(=O)N[C@@H](Cc2ccc(O)cc2)C(=O)N[C@@H](CC(C)C)C(=O)N[C@@H](CC(N)=O)C(=O)N[C@@H](CCCNC(=N)N)C(=O)N[C@@H](CC(C)C)C(=O)N[C@@H](CCCCC)C(=O)N2CCC[C@H]2C(=O)N[C@@H](C(C)C)C(=O)N[C@@H](C(C)C)C(=O)N[C@H](C(=O)NCCOCCOCC(=O)N[C@@H](CC(=O)O)C(=O)NCCOCCOCC(=O)NCCCCCCCCCCC(=O)O)CSCC(=O)N[C@@H](Cc2ccccc2)C(=O)N[C@@H](Cc2ccc(O)cc2)C(=O)N[C@@H](CC(=O)O)C1=O (stereo in doubt) [compound 2291]	17.4 nM
CCCCCCN1CC(=O)N[C@@H](Cc2ccc(O)cc2)C(=O)N[C@@H](CCCC)C(=O)N[C@@H](CC(=O)O)C(=O)N[C@@H](CCCNC(=N)N)C(=O)N[C@@H](CC(C)C)C(=O)N[C@@H](CCCCC)C(=O)N2CCC[C@H]2C(=O)N[C@@H](C(C)C)C(=O)N[C@@H](CC(N)=O)C(=O)N[C@H](C(=O)NCCOCCOCC(=O)N[C@@H](CC(=O)O)C(=O)NCCOCCOCC(=O)NCCCCCCCCCCC(=O)O)CSCC(=O)N[C@@H](Cc2ccccc2)C(=O)N[C@@H](Cc2ccc(O)cc2)C(=O)N[C@@H](CC(=O)O)C1=O (stereo in doubt) [compound 2295]	33.1 nM
CCCCCCN1CC(=O)N[C@@H](Cc2ccc(O)cc2)C(=O)N[C@@H](CCCC)C(=O)N[C@@H](CC(N)=O)C(=O)N[C@@H](CCCNC(N)=O)C(=O)N[C@@H](CC(C)C)C(=O)N[C@@H](CCCCC)C(=O)N2CCC[C@H]2C(=O)N[C@@H](C(C)C)C(=O)N[C@@H](CO)C(=O)N[C@H](C(=O)NCCOCCOCC(=O)N[C@@H](CC(=O)O)C(=O)NCCOCCOCC(=O)NCCCCCCCCCCC(=O)O)CSCC(=O)N[C@@H](Cc2ccc3ccccc3c2)C(=O)N[C@@H](Cc2ccc(O)cc2)C(=O)N[C@@H](CC(=O)O)C1=O (stereo in doubt) [compound 2305]	23 nM
CCCCCCN1CC(=O)N[C@@H](Cc2ccc(O)cc2)C(=O)N[C@@H](CCCC)C(=O)NCC(=O)N[C@@H](CCCNC(N)=O)C(=O)N[C@@H](CC(C)C)C(=O)N[C@@H](CCCCC)C(=O)N2CCC[C@H]2C(=O)N[C@@H](C(C)C)C(=O)N[C@@H](CC(=O)O)C(=O)N[C@H](C(=O)NCCOCCOCC(=O)N[C@@H](CC(=O)O)C(=O)NCCOCCOCC(=O)NCCCCCCCCCCC(=O)O)CSCC(=O)N[C@@H](Cc2cccc(C)c2)C(=O)N[C@@H](Cc2ccc(O)cc2)C(=O)N[C@@H](CC(=O)O)C1=O (stereo in doubt) [compound 2309]	17.9 nM
CCCCCCN1CC(=O)N[C@@H](Cc2ccc(O)cc2)C(=O)N[C@@H](CCCC)C(=O)N[C@@H](CC(N)=O)C(=O)N[C@@H](CCCNC(N)=O)C(=O)N2Cc3ccccc3C[C@H]2C(=O)N[C@@H](CCCCC)C(=O)N2CCC[C@H]2C(=O)N[C@@H](C(C)C)C(=O)N[C@@H](CO)C(=O)N[C@H](C(=O)NCCOCCOCC(=O)N[C@@H](CC(=O)O)C(=O)NCCOCCOCC(=O)NCCCCCCCCCCC(=O)O)CSCC(=O)N[C@@H](Cc2ccccc2)C(=O)N[C@@H](Cc2c[nH]c3ccccc23)C(=O)N[C@@H](CC(=O)O)C1=O (stereo in doubt) [compound 2311]	28.4 nM
CCCCCCN1CC(=O)N[C@@H](Cc2ccc(O)cc2)C(=O)N[C@@H](CCCC)C(=O)N[C@@H](CC(N)=O)C(=O)N[C@@H](CCCNC(=N)N)C(=O)N(C)[C@@H](CC(C)C)C(=O)N[C@@H](CCCCC)C(=O)N2CCC[C@H]2C(=O)N[C@@H](C(C)C)C(=O)N[C@@H](CO)C(=O)N[C@H](C(=O)NCCOCCOCC(=O)N[C@@H](CC(=O)O)C(=O)NCCOCCOCC(=O)NCCCCCCCCCCC(=O)O)CSCC(=O)N[C@@H](Cc2ccccc2)C(=O)N[C@@H](Cc2c[nH]c3ccccc23)C(=O)N[C@@H](CC(=O)O)C1=O (stereo in doubt) [compound 2314]	34.6 nM
CCCCCCN1CC(=O)N[C@@H](Cc2ccc(O)cc2)C(=O)N[C@@H](CCCC)C(=O)N[C@@H](CC(N)=O)C(=O)N[C@@H](CCCNC(N)=O)C(=O)N(C)[C@@H](CCCC)C(=O)N[C@@H](CCCCC)C(=O)N2CCC[C@H]2C(=O)N[C@@H](C(C)C)C(=O)N[C@@H](CO)C(=O)N[C@H](C(=O)NCCOCCOCC(=O)N[C@@H](CC(=O)O)C(=O)NCCOCCOCC(=O)NCCCCCCCCCCC(=O)O)CSCC(=O)N[C@@H](Cc2ccccc2)C(=O)N[C@@H](Cc2c[nH]c3ccccc23)C(=O)N[C@@H](CC(=O)O)C1=O (stereo in doubt) [compound 2317]	18.3 nM
CCCCCCN1CC(=O)N[C@@H](Cc2ccc(O)cc2)C(=O)N[C@@H](CCCC)C(=O)N[C@@H](CC(N)=O)C(=O)N[C@@H](CCCNC(=N)N)C(=O)N(C)[C@@H](CCCC)C(=O)N[C@@H](CCCCC)C(=O)N2CCC[C@H]2C(=O)N[C@@H](C(C)C)C(=O)N[C@@H](CO)C(=O)N[C@H](C(=O)NCCOCCOCC(=O)N[C@@H](CC(=O)O)C(=O)NCCOCCOCC(=O)NCCCCCCCCCCC(=O)O)CSCC(=O)N[C@@H](Cc2ccccc2)C(=O)N[C@@H](Cc2c[nH]c3ccccc23)C(=O)N[C@@H](CC(=O)O)C1=O (stereo in doubt) [compound 2318]	21.3 nM
